In patent US10167300B2, “Metalloenzyme inhibitor compounds as fungicides” (priority 2014, dated 2019):
Read-outs that look alike come from different tables or passages of the source.

Experiments:
[1] = Type B (low volume, EC formulation, track sprayer 200 L/ha) assay, leaf blotch of wheat, SEPTTR field isolate (FI SEPTTR); assay type: in vivo, Mycosphaerella graminicola on wheat plants (variety Yuma); settings: Zymoseptoria tritici, 72 h, field isolate, low volume EC, 100 g/ha, wheat (Yuma)
Outline: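 Wheat seedlings (Yuma, first leaf emerged) sprayed with acetone/Triton X-100 solutions (Type A) or 10% EC diluted in 0.1% Trycol at 200 L/ha (Type B), inoculated before or after spraying. Inoculated plants held 3 days at 20 °C, 100% RH, then greenhouse; % disease control from severity versus untreated plants.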

[2] = tested on: Mycosphaerella graminicola; Anamorph: Septoria tritici; Bayer Code SEPTTR (standard laboratory isolate, SI SEPTTR); test: Type A (high volume) assay, leaf blotch of wheat, standard laboratory SEPTTR isolate (SI SEPTTR); assay type: in vivo, Mycosphaerella graminicola on wheat plants (variety Yuma); settings: standard laboratory isolate, high volume, 50 ppm, wheat (Yuma); for pest or weed control at 50 ppm: Zymoseptoria tritici
Protocol: Example A: Evaluation of Fungicidal Activity: Leaf Blotch of Wheat (Mycosphaerella graminicola; Anamorph: Septoria tritici; Bayer Code SEPTTR)
For Type A assays, technical grades of the experimental fungicides in Table 4 below were dissolved in acetone, and then mixed with nine volumes of water containing 110 ppm Triton X-100. The fungicide solutions were applied onto wheat seedlings using an automated booth sprayer. For Type B assays, emulsifiable concentrate (EC) formulations of technical grades of the experimental fungicides in Table 4 below were prepared at 10% (w/v), and then mixed with 150 volumes of 0.1% Trycol 5941. These solutions were applied onto wheat seedlings using an automated track sprayer at 200 L/ha. All sprayed plants were allowed to air dry prior to further handling.
Wheat plants (variety Yuma) were grown from seed in a greenhouse in 50% mineral soil/50% soil-less Metro mix until the first leaf was fully emerged, with 7-10 seedlings per pot. Prior to or after application of experimental fungicides, plants were inoculated either with spores of a standard laboratory SEPTTR isolate (SI SEPTTR) or with spores from a SEPTTR field isolate collected from Wellsbourne, England in 2012 (FI SEPTTR). After inoculation the plants were kept for 3 days at 20° C. in 100% relative humidity (one day in a dark dew chamber followed by two days in a lighted dew chamber). Plants were then transferred to a 20° C. greenhouse for disease development. When disease symptoms were fully expressed on untreated plants, infection levels on treated plants were assessed on a scale of 0 to 100 percent disease severity. Percent disease control was calculated using the ratio of disease severity on treated plants relative to untreated plants.

[3] = 3 Day Curative, read-out: Disease Control, FI SEPTTR Type B Assay (100 g/ha) 3 DC
[4] = 3 Day Protectant, read-out: Disease Control, FI SEPTTR Type B Assay (100 g/ha) 3 DP
[5] = 24 h, 1 Day Protectant, read-out: Disease Control, SI SEPTTR Type A Assay (50 ppm) 1 DP
[6] = 72 h, 3 Day Curative, read-out: Disease Control, SI SEPTTR Type A Assay (50 ppm) 3 DC

Row | Compound | pest or weed control at 100 g/ha [1, 3] | pest or weed control at 100 g/ha [1, 4] | pest or weed control at 50 ppm [2, 5] | pest or weed control at 50 ppm [2, 6] | Disease Control, SI SEPTTR Type A Assay (50 ppm) 1 DP ([2]; 1 Day Protectant)
1 | CC(O)(c1cncnc1)c1ccc(-c2ccc(OC(F)(F)F)cc2)cn1 (stereo not drawn) [Compound 99] | < 40% | 40 to 59% | 80 to 100% |  | 
2 | CC(C)(C)C(O)(c1cncnc1)c1ccc(-c2ccc(OC(F)(F)F)cn2)cn1 (stereo not drawn) [Compound 150] | 80 to 100% | 80 to 100% | 80 to 100% |  | 
3 | COc1ccc(-c2ccc(C(O)(c3cncnc3)C(C)(C)C)nc2)c(OC(F)(F)F)c1 (stereo not drawn) [Compound 163] | 80 to 100% | 80 to 100% | 80 to 100% |  | 
4 | OC(Cc1ccc(Cl)cc1F)(Cn1cnnn1)c1ccc(Oc2ccc(Cl)cc2)cn1 (stereo not drawn) [Compound 42, 1-(4-chloro-2-fluorophenyl)-2-(5-(4-chlorophenoxy)-pyridin-2-yl)-3-(1H-tetrazol-1-yl)propan-2-ol] |  |  | 80 to 100% | 80 to 100% | 
5 | CC(C)(C)C(O)(c1cncnc1)c1ccc(-c2cncnc2)cn1 (stereo not drawn) [Compound 113] |  |  | 60 to 79% |  | 
6 | OC(CCc1ccc(Cl)cc1F)(Cn1cnnn1)c1ccc(Oc2ccc(C(F)(F)F)cn2)cn1 (stereo not drawn) [Compound 12] |  |  | 80 to 100% | < 40% | 
7 | CCC(O)(c1cncnc1)c1ccc(Oc2ccc(C(F)(F)F)cc2)cn1 (stereo not drawn) [Compound 34] |  |  | 80 to 100% | 60 to 79% | 
8 | OC(c1cncnc1)(c1ccc(Oc2ccc(Cl)nc2)cn1)C1CC1 (stereo not drawn) [Compound 11] |  |  | 40 to 59% | 40 to 59% | 
9 | CC(C)C(O)(c1cncnc1)c1ccc(Oc2ccc(C(F)(F)F)cn2)cn1 (stereo not drawn) [Compound 58] |  |  | 60 to 79% | 80 to 100% | 
10 | OC(c1cncnc1)(c1ccc(Oc2ccc(OC(F)(F)F)cc2)cn1)C1CC1 (stereo not drawn) [Compound 8] |  |  | 80 to 100% | 80 to 100% | 
11 | CC(C)(C)C(O)(c1cncnc1)c1ccc(-c2ccc(C3(C(F)(F)F)CC3)cc2)cn1 (stereo not drawn) [Compound 160] | 80 to 100% | 80 to 100% | 80 to 100% |  | 
12 | CN(C)c1ccc(-c2ccc(C(O)(c3cncnc3)C(C)(C)C)nc2)cc1 (stereo not drawn) [Compound 100] |  |  | 80 to 100% |  | 
13 | CC(C)C(O)(c1cncnc1)c1ccc(Oc2ccc(C(F)(F)F)cc2)cn1 (stereo not drawn) [Compound 75] |  |  |  |  | A (80-100)
14 | CC(C)C(O)(c1ccc(-c2ccc(OC(F)F)cc2)cn1)c1cncs1 (stereo not drawn) [Compound 85] |  |  | 80 to 100% |  | 
15 | CC(C)(C)C#CC(O)(c1cncnc1)c1ccc(Oc2ccc(OC(F)(F)F)cc2)cn1 (stereo not drawn) [Compound 31] |  |  | < 40% | 60 to 79% | 
16 | CC(C)(C)C#CC(O)(c1cncnc1)c1ccc(Oc2ccc(Cl)cn2)cn1 (stereo not drawn) [Compound 49] |  |  | 60 to 79% | 80 to 100% | 
17 | CC(C)(C)C(O)(c1cncnc1)c1ccc(-c2ccoc2)cn1 (stereo not drawn) [Compound 123] |  |  | 60 to 79% |  | 
18 | OC(c1cncnc1)(c1ccc(Oc2ccc(Cl)cc2)cn1)C1CC1 (stereo not drawn) [Compound 7] |  |  | 80 to 100% | 80 to 100% | 
19 | CC(C)C(O)(c1ccc(-c2ccc(OC(F)(F)F)cc2)cn1)c1cncs1 (stereo not drawn) [Compound 87] |  |  | 80 to 100% |  | 
20 | OC(Cc1cncnc1)(c1ccc(-c2ccc(Cl)cc2)cn1)C1CCCC1 (stereo not drawn) [Compound 56] |  |  | 80 to 100% | 80 to 100% | 

Row | Compound | pest or weed control at 100 g/ha [1, 3] | pest or weed control at 100 g/ha [1, 4] | pest or weed control at 50 ppm [2, 5] | pest or weed control at 50 ppm [2, 6] | Disease Control, SI SEPTTR Type A Assay (50 ppm) 1 DP ([2]; 1 Day Protectant)
21 | OC(Cc1cccc(Cl)c1)(c1cncnc1)c1ccc(-c2ccc(OC(F)(F)F)cc2)cn1 (stereo not drawn) [Compound 141] |  |  | 60 to 79% |  | 
22 | CC(F)(F)c1ccc(-c2ccc(C(O)(c3cncnc3)C(C)(C)C)nc2)cc1 (stereo not drawn) [Compound 155] | 60 to 79% | 60 to 79% | 80 to 100% |  | 
23 | OC(Cc1cncnc1)(c1ccc(-c2ccc(Cl)cc2)cn1)C1CCCCC1 (stereo not drawn) [Compound 52] |  |  | 60 to 79% | 60 to 79% | 
24 | OC(C#CC1CC1)(c1cncnc1)c1ccc(Oc2ccc(OC(F)(F)F)cc2)cn1 (stereo not drawn) [Compound 48] |  |  | < 40% | < 40% | 
25 | CC(C)(C)C#CC(O)(c1cncnc1)c1ccc(Oc2ccc(Cl)nc2)cn1 (stereo not drawn) [Compound 35] |  |  | < 40% | 60 to 79% | 
26 | COc1ccc(-c2ccc(C(O)(c3cncnc3)C(C)(C)C)nc2)c(F)c1 (stereo not drawn) [Compound 162] | 80 to 100% | 80 to 100% | 80 to 100% |  | 
27 | CC(C)C(O)(c1cncnc1)c1ccc(Oc2ccc(Cl)cc2)cn1 (stereo not drawn) [Compound 6] |  |  | 80 to 100% | 80 to 100% | 
28 | OC(CCc1ccc(F)cc1F)(Cn1cnnn1)c1ccc(Oc2ccc(Cl)cn2)cn1 (stereo not drawn) [Compound 2, 2-(5-((5-chloropyridin-2-yl)oxy)pyridin-2-yl)-4-(2,4-difluorophenyl)-1-(1H-tetrazol-1-yl)butan-2-ol] |  |  | 80 to 100% | < 40% | 
29 | OC(C#CC1CC1)(c1cncnc1)c1ccc(Oc2ccc(Cl)cc2)cn1 (stereo not drawn) [Compound 40] |  |  | 80 to 100% | 60 to 79% | 
30 | OC(Cc1ccc(Cl)cc1F)(Cn1cnnn1)c1ccc(-c2ccc(OC(F)(F)F)cc2)cn1 (stereo not drawn) [Compound 28, 1-(4-chloro-2-fluorophenyl)-3-(1H-tetrazol-1-yl)-2-(5-(4-(trifluoromethoxy)phenyl)pyridin-2-yl)propan-2-ol] |  |  | 60 to 79% | 40 to 59% | 
31 | OC(c1cncnc1)(c1ccc(Oc2ccc(C(F)(F)F)cn2)cn1)C1CC1 (stereo not drawn) [Compound 67] |  |  | < 40% |  | 
32 | CC(C)(C)C(O)(c1cncnc1)c1ccc(Oc2ccc(Cl)cc2)cn1 (stereo not drawn) [Compound 44] |  |  | < 40% | < 40% | 
33 | OC(Cc1cncnc1)(c1ccc(-c2ccc(Cl)cc2)cn1)C(F)(F)F (stereo not drawn) [Compound 46, 2-(5-(4-chlorophenyl)pyridin-2-yl)-1,1,1-trifluoro-3-(pyrimidin-5-yl)propan-2-ol] |  |  | 80 to 100% | 80 to 100% | 
34 | OC(Cc1cccc(F)c1)(c1cncnc1)c1ccc(-c2ccc(OC(F)(F)F)cc2)cn1 (stereo not drawn) [Compound 139, 2-(3-fluorophenyl)-1-pyrimidin-5-yl-1-[5-[4-(trifluoromethoxy)-phenyl]-2-pyridyl]ethanol] |  |  | 80 to 100% |  | 
35 | CC(C)(C)C(O)(c1cncnc1)c1ccc(-c2ccc(OC(F)(F)C(F)(F)F)cc2)cn1 (stereo not drawn) [Compound 161] | 80 to 100% | 80 to 100% | 80 to 100% |  | 
36 | CC(C)(C)C#CC(O)(c1cncnc1)c1ccc(Oc2ccc(C(F)(F)F)cc2)cn1 (stereo not drawn) [Compound 33] |  |  | 80 to 100% | 60 to 79% | 
37 | Cc1ccc(Oc2ccc(C(O)(c3cncnc3)C(C)C)nc2)nc1 (stereo not drawn) [Compound 53] |  |  | 40 to 59% | < 40% | 
38 | CC(C)(C)C(O)(Cn1cnnn1)c1ccc(Oc2ccc(Cl)cc2)cn1 (stereo not drawn) [Compound 43] |  |  | 60 to 79% | 80 to 100% | 
39 | OC(Cc1ccc(F)cc1)(c1cncnc1)c1ccc(-c2ccc(OC(F)(F)F)cc2)cn1 (stereo not drawn) [Compound 136] |  |  | 80 to 100% |  | 
